According to EP4635500A1, “THERAPEUTIC AGENT FOR BACTERIAL INFECTION” (Sumitomo Pharma Co., Ltd., priority 2022, dated 2024):

Tests used:
53 CRE and CPE strains = assay: MICrange, MIC50, MIC80, MIC90 for 53 bacterial isolates (Example 5, Table 5); format: cell-based; conditions: 53 bacterial isolates
P. aeruginosa = assay: MIC, broth microdilution, CDC/FDA Antibiotic Resistance Isolate Bank (Example 7, Tables 10, 15); format: cell-based
[1] = 26 metallo-carbapenemase-producing P. aeruginosa strains, β-lactamase inhibitor µg/mL in parentheses
[2] = 96 strains of P. aeruginosa, β-lactamase inhibitor µg/mL in parentheses

colistin
MIC50 (53 CRE and CPE strains): 0.5 µg/mL | MIC80 (53 CRE and CPE strains): 1 µg/mL | MIC90 (53 CRE and CPE strains): 32 µg/mL | MIC against 26 metallo-carbapenemase-producing strains MIC50 (P. aeruginosa; [1]): 1 µg(mL) | MIC against 26 metallo-carbapenemase-producing strains MIC80 (P. aeruginosa; [1]): 1 µg(mL) | MIC against 26 metallo-carbapenemase-producing strains MIC90 (P. aeruginosa; [1]): 1 µg(mL) | MIC against 26 metallo-carbapenemase-producing strains MICrange (P. aeruginosa; [1]): 0.5 - 2 µg(mL) | MIC against 96 strains of P. aeruginosa MIC50 (P. aeruginosa; [2]): 1 µg(mL) | MIC against 96 strains of P. aeruginosa MIC80 (P. aeruginosa; [2]): 1 µg(mL) | MIC against 96 strains of P. aeruginosa MIC90 (P. aeruginosa; [2]): 1 µg(mL) | MIC against 96 strains of P. aeruginosa MICrange (P. aeruginosa; [2]): 0.25 - 2 µg(mL) | MIC (P. aeruginosa; P. aeruginosa KUB No. 579, AR Bank # 447): 1 µg/mL | MIC (P. aeruginosa; P. aeruginosa KUB No. 5083, AR Bank # 250): 1 µg/mL | MIC (P. aeruginosa; P. aeruginosa KUB No. 5551, AR Bank # 54): 2 µg/mL | MIC (P. aeruginosa; P. aeruginosa KUB No. 5561, AR Bank # 64): 1 µg/mL | MIC (P. aeruginosa; P. aeruginosa KUB No. 5587, AR Bank # 90): 1 µg/mL | MIC (P. aeruginosa; P. aeruginosa KUB No. 5589, AR Bank # 92): 1 µg/mL | MIC (P. aeruginosa; P. aeruginosa KUB No. 5591, AR Bank # 94): 1 µg/mL | MIC (P. aeruginosa; P. aeruginosa KUB No. 5592, AR Bank # 95): 1 µg/mL | MIC (P. aeruginosa; P. aeruginosa KUB No. 5597, AR Bank # 100): 1 µg/mL | MIC (P. aeruginosa; P. aeruginosa KUB No. 5600, AR Bank # 103): 1 µg/mL | MIC (P. aeruginosa; P. aeruginosa KUB No. 5602, AR Bank # 105): 1 µg/mL | MIC (P. aeruginosa; P. aeruginosa KUB No. 5605, AR Bank # 108): 1 µg/mL | MIC (P. aeruginosa; P. aeruginosa KUB No. 5607, AR Bank # 110): 1 µg/mL | MIC (P. aeruginosa; P. aeruginosa KUB No. 5608, AR Bank # 111): 1 µg/mL | MIC (P. aeruginosa; P. aeruginosa KUB No. 5662, AR Bank # 229): 1 µg/mL | MIC (P. aeruginosa; P. aeruginosa KUB No. 5663, AR Bank # 230): 1 µg/mL | MIC (P. aeruginosa; P. aeruginosa KUB No. 5664, AR Bank # 231): 1 µg/mL | MIC (P. aeruginosa; P. aeruginosa KUB No. 5665, AR Bank # 232): 1 µg/mL | MIC (P. aeruginosa; P. aeruginosa KUB No. 5666, AR Bank # 23): 1 µg/mL | MIC (P. aeruginosa; P. aeruginosa KUB No. 5667, AR Bank # 234): 1 µg/mL | MIC (P. aeruginosa; P. aeruginosa KUB No. 5668, AR Bank # 235): 0.5 µg/mL | MIC (P. aeruginosa; P. aeruginosa KUB No. 5669, AR Bank # 236): 1 µg/mL | MIC (P. aeruginosa; P. aeruginosa KUB No. 5670, AR Bank # 237): 0.5 µg/mL | MIC (P. aeruginosa; P. aeruginosa KUB No. 5671, AR Bank # 238): 1 µg/mL | MIC (P. aeruginosa; P. aeruginosa KUB No. 5672, AR Bank # 239): 1 µg/mL | MIC (P. aeruginosa; P. aeruginosa KUB No. 5673, AR Bank # 240): 1 µg/mL | MIC (P. aeruginosa; P. aeruginosa KUB No. 5674, AR Bank # 241): 1 µg/mL | MIC (P. aeruginosa; P. aeruginosa KUB No. 5675, AR Bank # 242): 0.5 µg/mL | MIC (P. aeruginosa; P. aeruginosa KUB No. 5676, AR Bank # 243): 1 µg/mL | MIC (P. aeruginosa; P. aeruginosa KUB No. 5677, AR Bank # 244): 1 µg/mL | MIC (P. aeruginosa; P. aeruginosa KUB No. 5678, AR Bank # 245): 1 µg/mL | MIC (P. aeruginosa; P. aeruginosa KUB No. 5679, AR Bank # 246): 0.5 µg/mL | MIC (P. aeruginosa; P. aeruginosa KUB No. 5680, AR Bank # 247): 0.5 µg/mL | MIC (P. aeruginosa; P. aeruginosa KUB No. 5681, AR Bank # 248): 1 µg/mL | MIC (P. aeruginosa; P. aeruginosa KUB No. 5682, AR Bank # 249): 0.5 µg/mL | MIC (P. aeruginosa; P. aeruginosa KUB No. 5684, AR Bank # 251): 0.5 µg/mL | MIC (P. aeruginosa; P. aeruginosa KUB No. 5685, AR Bank # 252): 1 µg/mL | MIC (P. aeruginosa; P. aeruginosa KUB No. 5686, AR Bank # 253): 1 µg/mL | MIC (P. aeruginosa; P. aeruginosa KUB No. 5687, AR Bank # 254): 1 µg/mL | MIC (P. aeruginosa; P. aeruginosa KUB No. 5688, AR Bank # 255): 1 µg/mL | MIC (P. aeruginosa; P. aeruginosa KUB No. 5689, AR Bank # 256): 0.5 µg/mL | MIC (P. aeruginosa; P. aeruginosa KUB No. 5690, AR Bank # 257): 1 µg/mL | MIC (P. aeruginosa; P. aeruginosa KUB No. 5691, AR Bank # 258): 0.5 µg/mL | MIC (P. aeruginosa; P. aeruginosa KUB No. 5692, AR Bank # 259): 1 µg/mL | MIC (P. aeruginosa; P. aeruginosa KUB No. 5693, AR Bank # 260): 1 µg/mL | MIC (P. aeruginosa; P. aeruginosa KUB No. 5694, AR Bank # 261): 1 µg/mL | MIC (P. aeruginosa; P. aeruginosa KUB No. 5695, AR Bank # 262): 1 µg/mL | MIC (P. aeruginosa; P. aeruginosa KUB No. 5696, AR Bank # 263): 0.5 µg/mL | MIC (P. aeruginosa; P. aeruginosa KUB No. 5697, AR Bank # 264): 1 µg/mL | MIC (P. aeruginosa; P. aeruginosa KUB No. 5698, AR Bank # 265): 1 µg/mL | MIC (P. aeruginosa; P. aeruginosa KUB No. 5699, AR Bank # 266): 1 µg/mL | MIC (P. aeruginosa; P. aeruginosa KUB No. 5700, AR Bank # 267): 1 µg/mL | MIC (P. aeruginosa; P. aeruginosa KUB No. 5701, AR Bank # 268): 1 µg/mL | MIC (P. aeruginosa; P. aeruginosa KUB No. 5702, AR Bank # 269): 1 µg/mL | MIC (P. aeruginosa; P. aeruginosa KUB No. 5703, AR Bank # 270): 1 µg/mL | MIC (P. aeruginosa; P. aeruginosa KUB No. 5704, AR Bank # 271): 1 µg/mL | MIC (P. aeruginosa; P. aeruginosa KUB No. 5705, AR Bank # 272): 1 µg/mL | MIC (P. aeruginosa; P. aeruginosa KUB No. 5747, AR Bank # 351): 1 µg/mL | MIC (P. aeruginosa; P. aeruginosa KUB No. 5748, AR Bank # 352): 0.5 µg/mL | MIC (P. aeruginosa; P. aeruginosa KUB No. 5749, AR Bank # 353): 0.5 µg/mL | MIC (P. aeruginosa; P. aeruginosa KUB No. 5750, AR Bank # 354): 1 µg/mL | MIC (P. aeruginosa; P. aeruginosa KUB No. 5751, AR Bank # 355): 1 µg/mL | MIC (P. aeruginosa; P. aeruginosa KUB No. 5752, AR Bank # 356): 0.5 µg/mL | MIC (P. aeruginosa; P. aeruginosa KUB No. 5753, AR Bank # 357): 1 µg/mL | MIC (P. aeruginosa; P. aeruginosa KUB No. 5754, AR Bank # 358): 1 µg/mL | MIC (P. aeruginosa; P. aeruginosa KUB No. 5755, AR Bank # 359): 1 µg/mL | MIC (P. aeruginosa; P. aeruginosa KUB No. 5756, AR Bank # 360): 1 µg/mL | MIC (P. aeruginosa; P. aeruginosa KUB No. 5785, AR Bank # 439): 0.5 µg/mL | MIC (P. aeruginosa; P. aeruginosa KUB No. 5786, AR Bank # 440): 1 µg/mL | MIC (P. aeruginosa; P. aeruginosa KUB No. 5787, AR Bank # 441): 0.5 µg/mL | MIC (P. aeruginosa; P. aeruginosa KUB No. 5788, AR Bank # 443): 1 µg/mL | MIC (P. aeruginosa; P. aeruginosa KUB No. 5789, AR Bank # 444): 1 µg/mL | MIC (P. aeruginosa; P. aeruginosa KUB No. 5790, AR Bank # 445): 1 µg/mL | MIC (P. aeruginosa; P. aeruginosa KUB No. 5793, AR Bank # 449): 1 µg/mL | MIC (P. aeruginosa; P. aeruginosa KUB No. 5798, AR Bank # 455): 0.25 µg/mL | MIC (P. aeruginosa; P. aeruginosa KUB No. 5799, AR Bank # 456): 1 µg/mL | MIC (P. aeruginosa; P. aeruginosa KUB No. 5800, AR Bank # 457): 0.5 µg/mL | MIC (P. aeruginosa; P. aeruginosa KUB No. 5801, AR Bank # 458): 0.5 µg/mL | MIC (P. aeruginosa; P. aeruginosa KUB No. 5802, AR Bank # 459): 0.5 µg/mL | MIC (P. aeruginosa; P. aeruginosa KUB No. 5804, AR Bank # 862): 1 µg/mL | MIC (P. aeruginosa; P. aeruginosa KUB No. 5805, AR Bank # 863): 1 µg/mL | MIC (P. aeruginosa; P. aeruginosa KUB No. 5806, AR Bank # 864): 1 µg/mL | MIC (P. aeruginosa; P. aeruginosa KUB No. 5813, AR Bank # 508): 0.0005 µg/mL | MIC (P. aeruginosa; P. aeruginosa KUB No. 5814, AR Bank # 509): 0.001 µg/mL | MIC (P. aeruginosa; P. aeruginosa KUB No. 5815, AR Bank # 510): 0.0005 µg/mL | MIC (P. aeruginosa; P. aeruginosa KUB No. 5816, AR Bank # 511): 0.0005 µg/mL | MIC (P. aeruginosa; P. aeruginosa KUB No. 5817, AR Bank # 512): 0.001 µg/mL | MIC (P. aeruginosa; P. aeruginosa KUB No. 5818, AR Bank # 513): 0.001 µg/mL | MIC (P. aeruginosa; P. aeruginosa KUB No. 5819, AR Bank # 514): 0.001 µg/mL | MIC (P. aeruginosa; P. aeruginosa KUB No. 5820, AR Bank # 515): 0.001 µg/mL | MIC (P. aeruginosa; P. aeruginosa KUB No. 5821, AR Bank # 516): 0.001 µg/mL | MIC (P. aeruginosa; P. aeruginosa KUB No. 5823, AR Bank # 518): 0.001 µg/mL | MIC (P. aeruginosa; P. aeruginosa KUB No. 5831, AR Bank # 526): 0.001 µg/mL | MIC (P. aeruginosa; P. aeruginosa KUB No. 5832, AR Bank # 527): 0.0005 µg/mL | MIC (P. aeruginosa; P. aeruginosa KUB No. 5833, AR Bank # 528): 0.001 µg/mL | MIC (P. aeruginosa; P. aeruginosa KUB No. 5834, AR Bank # 529): 0.001 µg/mL
